According to US20250360166A1, “Cisplatin particles and uses thereof” (CRITITECH, INC., priority 2021, published 2025):

Key:
H69 tumor cells = assay: SCP-Cisplatin pilot study, subcutaneous H69 tumor in NCr nu/nu mice, single intra-tumoral injection; format: in vivo
Protocol: 55 CR female NCr nu/nu mice 8-12 weeks of age at start date were injected subcutaneously in the flank with 1×10^7 H69 tumor cells in 50% Matrigel; cell injection volume was 0.1 mL/mouse. A pair match was performed when tumors reach an average size of 100-150 mm^3, after which treatment was initiated as detailed in Table 2.
Tumor cells implanted on Day 0 and treatments initiated on Day 18 (Mean TV=126 mm^3). There were 5 treatment groups (n=5/group); all receiving IT injections =25 uL; 27G needle. The IT vehicle group was administered ethanol/glycerin/water. Animals were sacrificed at humane endpoint of TV=2000 mm^3 or Study Day 51.

[1] = Specific surface area by BET sorptometry; format: physicochemical
From the text: The BET specific surface area test procedure is a compendial method included in both the United States Pharmaceopeia and the European Pharmaceopeia.

[2] = Particle size distribution by laser diffraction (Malvern Mastersizer 3000, Hydro MV); format: physicochemical; details: dispersed in ethyl acetate
Protocol: Particle size analyses were conducted on a Malvern Mastersizer™ 3000 using the Hydro MV dispersion unit. A non-validated general PSD method/dispersant method was used to analyze the cisplatin samples. The sample preparation procedure performed was as follows: Weigh 10 to 20 mg of cisplatin into a 30-mL vial, add 20 mL of ethyl acetate. Disperse the sample by vortexing then sonicating the suspension in an ultrasonic bath for 1 minute. Then transfer the sample suspension to the Malvern Hydro MV dispersion unit to obtain obscuration between 5 and 15%.

[3] = Bulk density (10 mL graduated cylinder, modified USP <616> Method I); format: physicochemical; details: not tapped
Protocol: As used herein, the bulk density of the cisplatin particles is the mass of the totality of particles in the composition divided by the total volume they occupy when poured into a graduated cylinder and not tapped. The total volume includes particle volume, inter-particle void volume, and internal pore volume.
Bulk density analyses were conducted using a 10 mL graduated cylinder due to low sample volume.

| SMILES | tumor volume of surviving animals on Day 51 (H69 tumor cells; 25 μg/animal intra-tumoral qd × 1) | animals survived on Day 51 (H69 tumor cells; 25 μg/animal intra-tumoral qd × 1, n=5, endpoint TV=2000 mm^3 or Day 51) | Surface Area [1] | PSD-Master sizer Dv10 [2] | PSD-Master sizer Dv50 [2] | PSD-Master sizer Dv90 [2] | Bulk Density [3] |
| --- | --- | --- | --- | --- | --- | --- | --- |
| N.N.[Cl][Pt][Cl] [Cisplatin] | increasing tumor volume | 3 of 5 |  |  |  |  |  |
| N.N.[Cl][Pt][Cl] [Raw, Cisplatin] |  |  | 2.44 m^2/g | 1.72 μm | 10.9 μm | 25.9 μm | 1.01 g/mL |
